Target: T1, hDGAT1 (Homo sapiens, UniProt O75907)
T1 construct: host or cells: Sf9 insect cells (baculovirus); microsomal preparation
T1 sequence (O75907 1-488): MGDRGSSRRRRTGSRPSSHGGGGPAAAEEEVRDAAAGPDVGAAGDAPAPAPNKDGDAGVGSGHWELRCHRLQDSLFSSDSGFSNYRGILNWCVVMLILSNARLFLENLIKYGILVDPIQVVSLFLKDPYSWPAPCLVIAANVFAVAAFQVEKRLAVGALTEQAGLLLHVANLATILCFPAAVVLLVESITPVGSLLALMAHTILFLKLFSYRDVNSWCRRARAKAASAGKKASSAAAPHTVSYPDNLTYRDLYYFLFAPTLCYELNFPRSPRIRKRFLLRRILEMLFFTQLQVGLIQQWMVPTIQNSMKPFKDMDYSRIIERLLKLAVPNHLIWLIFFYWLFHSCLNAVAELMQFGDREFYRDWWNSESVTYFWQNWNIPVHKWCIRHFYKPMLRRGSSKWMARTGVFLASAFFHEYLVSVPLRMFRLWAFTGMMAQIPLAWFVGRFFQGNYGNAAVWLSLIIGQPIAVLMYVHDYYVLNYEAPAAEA
Experiment: In-vitro DGAT1 assay (hDGAT1 microsomes from Sf9 cells, 14C oleoyl CoA, triglyceride formation)
Assay type: biochemical
In short: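 Human DGAT1 in baculovirus-infected Sf9 microsomes (2.5–10 μg), [14C]oleoyl-CoA with 409.5, 1228.5 or 1638 μM 1,2-dioleoyl-sn-glycerol, Tris-HCl pH 7.4 buffer with BSA. Compounds screened at 10, 5 and 1 μM in duplicate. Reaction 10 min at 37 °C; heptane-extracted [14C]triglyceride counted by scintillation.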

inhibition at 10 µM [%] | Structure (SMILES) | further results
75 to 100 | CC(C)CC(NC(=O)c1cc(-c2ccc(NC(=O)Nc3ccc(F)cc3F)cc2)no1)C(=O)O (centres unmarked) [Example 114, 2-(3-(4-(3-(2,4-Difluorophenyl)ureido)phenyl)isoxazole-5-carboxamido)-4-methylpentanoic acid] | 
0 to 50 | COC(=O)C(C)NC(=O)c1cc(-c2ccc(NC(=O)Nc3ccc(F)cc3)cc2)no1 (centres unmarked) [Example 115, Methyl 2-(3-(4-(3-(4-fluorophenyl)ureido)phenyl)isoxazole-5-carboxamido)propanoate] | 
75 to 100 | CC(NC(=O)c1cc(-c2ccc(NC(=O)Nc3ccc(F)cc3)cc2)no1)C(=O)O (centres unmarked) [Example 116, 2-(3-(4-(3-(4-fluorophenyl)ureido)phenyl)isoxazole-5-carboxamido) propanoic acid] | 
50 to 75 | COC(=O)C(C)(C)NC(=O)c1cc(-c2ccc(NC(=O)Nc3ccc(F)cc3)cc2)no1 [Example 117, Methyl 2-(3-(4-(3-(4-fluorophenyl)ureido)phenyl)isoxazole-5-carboxamido)-2-methylpropanoate] | 
50 to 75 | CC(C)(NC(=O)c1cc(-c2ccc(NC(=O)Nc3ccc(F)cc3)cc2)no1)C(=O)O [Example 118, 2-(3-(4-(3-(4-fluorophenyl)ureido)phenyl)isoxazole-5-carboxamido)-2-methylpropanoic acid] | 
50 to 75 | COC(=O)C1(NC(=O)c2cc(-c3ccc(NC(=O)Nc4ccc(F)cc4)cc3)no2)CCCC1 [Example 119, Methyl 1-(3-(4-(3-(4-fluorophenyl)ureido)phenyl)isoxazole-5-carboxamido)cyclopentanecarboxylate] | 
50 to 75 | O=C(Nc1ccc(F)cc1)Nc1ccc(-c2cc(C(=O)NC3(C(=O)O)CCCC3)on2)cc1 [Example 120, 1-(3-(4-(3-(4-fluorophenyl)ureido)phenyl)isoxazole-5-carboxamido) cyclopentanecarboxylic acid] | 
50 to 75 | COC(=O)C(C)(C)NC(=O)c1cc(-c2ccc(NC(=O)Nc3ccccc3)cc2)no1 [Example 121, Methyl 2-methyl-2-(3-(4-(3-phenylureido)phenyl)isoxazole-5-carboxamido)propanoate] | 
75 to 100 | CC(C)(NC(=O)c1cc(-c2ccc(NC(=O)Nc3ccccc3)cc2)no1)C(=O)O [Example 122, 2-methyl-2-(3-(4-(3-phenylureido)phenyl)isoxazole-5-carboxamido) propanoic acid] | 
50 to 75 | COC(=O)C(NC(=O)c1cc(-c2ccc(NC(=O)Nc3c(F)cccc3F)cc2)no1)C(C)C (centres unmarked) [Example 123, Methyl 2-(3-(4-(3-(2,6-difluorophenyl)ureido)phenyl)isoxazole-5-carboxamido)-3-methylbutanoate] | 
75 to 100 | CC(C)C(NC(=O)c1cc(-c2ccc(NC(=O)Nc3c(F)cccc3F)cc2)no1)C(=O)O (centres unmarked) [Example 124, 2-(3-(4-(3-(2,6-difluorophenyl)ureido)phenyl)isoxazole-5-carboxamido)-3-methylbutanoic acid] | 
50 to 75 | COC(=O)C(NC(=O)c1cc(-c2ccc(NC(=O)Nc3ccc(C)cc3)cc2)no1)C(C)C (centres unmarked) [Example 125, Methyl 3-methyl-2-(3-(4-(3-p-tolylureido)phenyl)isoxazole-5-carboxamido)butanoate] | 
75 to 100 | Cc1ccc(NC(=O)Nc2ccc(-c3cc(C(=O)NC(C(=O)O)C(C)C)on3)cc2)cc1 (centres unmarked) [Example 126, 3-Methyl-2-(3-(4-(3-p-tolylureido)phenyl)isoxazole-5-carboxamido) butanoic acid] | 
0 to 50 | COC(=O)C(NC(=O)c1cc(-c2ccc(NC(=O)Nc3ccc(OC)cc3)cc2)no1)C(C)C (centres unmarked) [Example 127, Methyl 2-(3-(4-(3-(4-methoxyphenyl)ureido)phenyl)isoxazole-5-carboxamido)-3-methylbutanoate] | 
75 to 100 | COc1ccc(NC(=O)Nc2ccc(-c3cc(C(=O)NC(C(=O)O)C(C)C)on3)cc2)cc1 (centres unmarked) [Example 128, 2-(3-(4-(3-(4-Methoxyphenyl)ureido)phenyl)isoxazole-5-carboxamido)-3-methylbutanoic acid] | 
 | COC(=O)[C@@H](NC(=O)c1cc(-c2ccc(NC(=O)Nc3ccc(F)c(F)c3)cc2)no1)C(C)C [Example 129, (S)-methyl 2-(3-(4-(3-(3,4-difluorophenyl)ureido)phenyl)isoxazole-5-carboxamido)-3-methylbutanoate] | inhibition at 1 µM: 50 to 75%

inhibition at 10 µM [%] | Structure (SMILES) | further results
 | CC(C)[C@H](NC(=O)c1cc(-c2ccc(NC(=O)Nc3ccc(F)c(F)c3)cc2)no1)C(=O)O [Example 130, (S)-2-(3-(4-(3-(3,4-difluorophenyl)ureido)phenyl)isoxazole-5-carboxamido)-3-methylbutanoic acid] | inhibition at 1 µM: 75 to 100%
0 to 50 | COC(=O)C(CC(C)C)NC(=O)c1cc(-c2cc(NC(=O)Nc3ccc(F)cc3)ccc2C)no1 (centres unmarked) [Example 131, Methyl 2-(3-(5-(3-(4-fluorophenyl)ureido)-2-methylphenyl)isoxazole-5-carboxamido)-4-methylpentanoate] | 
0 to 50 | Cc1ccc(NC(=O)Nc2ccc(F)cc2)cc1-c1cc(C(=O)NC(CC(C)C)C(=O)O)on1 (centres unmarked) [Example 132, 2-(3-(5-(3-(4-fluorophenyl)ureido)-2-methylphenyl)isoxazole-5-carboxamido)-4-methylpentanoic acid] | 
50 to 75 | COC(=O)C(NC(=O)c1cc(-c2ccc(NC(=O)Nc3ccc(F)cc3)cc2C)no1)C(C)C (centres unmarked) [Example 133, Methyl 2-(3-(4-(3-(4-fluorophenyl)ureido)-2-methylphenyl)isoxazole-5-carboxamido)-3-methylbutanoate] | 
75 to 100 | Cc1cc(NC(=O)Nc2ccc(F)cc2)ccc1-c1cc(C(=O)NC(C(=O)O)C(C)C)on1 (centres unmarked) [Example 134, 2-(3-(4-(3-(4-fluorophenyl)ureido)-2-methylphenyl)isoxazole-5-carboxamido)-3-methylbutanoic acid] | 
 | COC(=O)C(NC(=O)c1cc(-c2ccc(NC(=O)Nc3ccccc3F)cc2C)no1)C(C)C (centres unmarked) [Example 135, Methyl 2-(3-(4-(3-(2-fluorophenyl)ureido)-2-methylphenyl)isoxazole-5-carboxamido)-3-methylbutanoate] | inhibition at 5 µM: 0 to 50%
 | Cc1cc(NC(=O)Nc2ccccc2F)ccc1-c1cc(C(=O)NC(C(=O)O)C(C)C)on1 (centres unmarked) [Example 136, 2-(3-(4-(3-(2-Fluorophenyl)ureido)-2-methylphenyl)isoxazole-5-carboxamido)-3-methylbutanoic acid] | inhibition at 5 µM: 75 to 100%
0 to 50 | COC(=O)C(NC(=O)c1cc(-c2ccc(NC(=O)Nc3ccc(F)cc3F)cc2C)no1)C(C)C (centres unmarked) [Example 137, Methyl 2-(3-(4-(3-(2,4-difluorophenyl)ureido)-2-methylphenyl)isoxazole-5-carboxamido)-3-methylbutanoate] | 
75 to 100 | Cc1cc(NC(=O)Nc2ccc(F)cc2F)ccc1-c1cc(C(=O)NC(C(=O)O)C(C)C)on1 (centres unmarked) [Example 138, 2-(3-(4-(3-(2,4-difluorophenyl)ureido)-2-methylphenyl)isoxazole-5-carboxamido)-3-methylbutanoic acid] | 
0 to 50 | COC(=O)C(CC(C)C)NC(=O)c1cc(-c2ccc(NC(=O)Nc3ccc(F)cc3F)cc2C)no1 (centres unmarked) [Example 139, Methyl 2-(3-(4-(3-(2,4-difluorophenyl)ureido)-2-methylphenyl)isoxazole-5-carboxamido)-4-methylpentanoate] | 
75 to 100 | Cc1cc(NC(=O)Nc2ccc(F)cc2F)ccc1-c1cc(C(=O)NC(CC(C)C)C(=O)O)on1 (centres unmarked) [Example 140, 2-(3-(4-(3-(2,4-difluorophenyl)ureido)-2-methylphenyl)isoxazole-5-carboxamido)-4-methylpentanoic acid] | 
 | COC(=O)[C@@H](NC(=O)c1cc(-c2ccc(NC(=O)Nc3ccc(F)cc3F)cc2F)no1)C(C)C [Example 141, (S)-Methyl 2-(3-(4-(3-(2,4-difluorophenyl)ureido)-2-fluorophenyl)isoxazole-5-carboxamido)-3-methylbutanoate] | inhibition at 5 µM: 0 to 50%
 | CC(C)[C@H](NC(=O)c1cc(-c2ccc(NC(=O)Nc3ccc(F)cc3F)cc2F)no1)C(=O)O [Example 142, (S)-2-(3-(4-(3-(2,4-difluorophenyl)ureido)-2-fluorophenyl)isoxazole-5-carboxamido)-3-methylbutanoic acid] | inhibition at 5 µM: 75 to 100%
 | COC(=O)[C@@H](NC(=O)c1cc(-c2ccc(NC(=O)Nc3ccccc3F)cc2F)no1)C(C)C [Example 143, (S)-methyl 2-(3-(2-fluoro-4-(3-(2-fluorophenyl)ureido)phenyl)isoxazole-5-carboxamido)-3-methylbutanoate] | inhibition at 5 µM: 50 to 75%
 | CC(C)[C@H](NC(=O)c1cc(-c2ccc(NC(=O)Nc3ccccc3F)cc2F)no1)C(=O)O [Example 144, (S)-2-(3-(2-Fluoro-4-(3-(2-fluorophenyl)ureido)phenyl)isoxazole-5-carboxamido)-3-methylbutanoic acid] | inhibition at 5 µM: 75 to 100%
 | COC(=O)[C@@H](NC(=O)c1cc(-c2ccc(NC(=O)Nc3ccc(F)cc3)cc2F)no1)C(C)C [Example 145, (S)-Methyl 2-(3-(2-fluoro-4-(3-(4-fluorophenyl)ureido)phenyl)isoxazole-5-carboxamido)-3-methylbutanoate] | inhibition at 5 µM: 50 to 75%
